# Reference: US10071100B2, “Therapeutic nanoparticles comprising a therapeutic agent and methods of making and using the same” (PFIZER INC., priority 2014, dated 2018)
# Key:
# [1] = pharmacokinetics of nanoparticles in Wistar Han rats; type: in vivo; details: rat; male Wistar Han rats, intravenous 1 mg/kg bolus, plasma
# Method: The protocol was as follows: Male Wistar Han rats (approximately six weeks in age; n=4/group) with indwelling jugular vein cannulae were dosed intravenously with a 1 mg/kg bolus of Formulation A, B, and C nanoparticles or Formulation A, B, and C nanoparticles diluted in 0.9% saline. At various times after dosing, serial blood collections were made from the jugular vein cannulae and plasma concentrations of therapeutic agent were quantitated by LC-MS/MS.
# [2] = pKa (acid dissociation constant); type: physicochemical; details: protonated form of the therapeutic agent; read-out: first pKa
# Excerpt: It is described in U.S. Pat. No. 8,039,469, the contents of which are incorporated by reference. […] As indicated above, it is a base. It is a protonatable nitrogen-containing therapeutic agent. As used herein, a “protonatable nitrogen-containing therapeutic agent” includes any pharmaceutically active agent that contains at least one nitrogen-containing functional group that is capable of being protonated. In other words, the therapeutic agent has a nitrogen atom thereon which has a lone pair of electrons that could potentially accept a proton. The pKa refers to the acid dissociation constant on a logarithmic scale of the corresponding protonated form of the therapeutic agent. In other words, if a proton (H+) were present at the nitrogen atoms where there is an arrow indicated, the therapeutic agent would have the pKa indicated below:
# The pKa information for the most basic nitrogen (bottom) and a less basic but still protonatable nitrogen (upper) are shown above. ACD is a calculated number using standard techniques known in the art, such as described in Liao C Z, Nicklaus M C. Comparison of nine programs predicting pK(a) values of pharmaceutical substances. J. Chem. Inform. Model. 49(12):2801-2812, 2009. It has to be understood that the pKa of the therapeutic agent refers to the protonated form thereof. […]
# physchem = type: physicochemical
# Excerpt: It is described in U.S. Pat. No. 8,039,469, the contents of which are incorporated by reference. […] As indicated above, it is a base. It is a protonatable nitrogen-containing therapeutic agent. As used herein, a “protonatable nitrogen-containing therapeutic agent” includes any pharmaceutically active agent that contains at least one nitrogen-containing functional group that is capable of being protonated. In other words, the therapeutic agent has a nitrogen atom thereon which has a lone pair of electrons that could potentially accept a proton. The pKa refers to the acid dissociation constant on a logarithmic scale of the corresponding protonated form of the therapeutic agent. In other words, if a proton (H+) were present at the nitrogen atoms where there is an arrow indicated, the therapeutic agent would have the pKa indicated below: […]
structure (smiles),measurement,setting,value
"CN(C)C1CCN(C(=O)c2ccc(NC(=O)Nc3ccc(-c4nc(N5CCOCC5)nc(N5CCOCC5)n4)cc3)cc2)CC1 [therapeutic agent, 1-(4-{[4-(dimethylamino)piperidin-1-yl]carbonyl}phenyl)-3-[4-(4,6-dimorpholin-4-yl-1,3,5-triazin-2-yl)phenyl]urea]",AUC,[1],920 ng·h/mL
same,half-life,[1],13.2 h
same,pKa,[2],~6.7
same,logD,physchem; pH 6.5,0.212
same,logD,physchem; pH 7.4,1.08
